Activity calls are given as the source filed them.
Legend:
Salmon testes DNA = test: DNA intercalators displacing acridine orange, dose response, artefact control for KSHV LANA DNA-binding inhibitor project, biochemical, fluorescence polarization, cherry-picked samples, set 2 (AID 504727); set-up: species or system Salmonidae
ORF 73 = ORF 73 (Human herpesvirus 8, UniProt O40947); test: inhibitors of C-LANA binding to LBS DNA, dose response, biochemical, fluorescence polarization, cherry-picked samples (AID 504725); set-up: species or system Human gammaherpesvirus 8;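 also: fluorescence polarization of a labeled DNA duplex reporting LANA DNA binding; potency is for inhibitors that block LANA binding to the DNA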
Keap1/Nrf2 = Keap1/Nrf2 (Homo sapiens, UniProt Q14145); test: Keap1-Nrf2 protein-protein interaction inhibitors, dose response, biochemical, fluorescence polarization, cherry-picked samples (AID 588683)
[1] = inhibition of K1F phage lysis, E. coli UTI89, bacterial capsule biogenesis inhibitors, alamar blue (AID 488966); type: functional
MDA-MB-435 = test: cells; type: functional, cell-based; conditions: Homo sapiens
cells = type: functional, cell-based; conditions: PPC-1
[2] = target: T1, Mannose-6-phosphate isomerase (Homo sapiens, UniProt P34949); test: Confirmation of compounds inhibiting phosphomannose isomerase (PMI) via a fluorescence intensity assay using a high concentration of mannose 6-phosphate. [Related pubchem assays (depositor defined):AID1209, AID1220, AID1545, AID1553, AID1620]
T1 sequence (P34949 whole entry): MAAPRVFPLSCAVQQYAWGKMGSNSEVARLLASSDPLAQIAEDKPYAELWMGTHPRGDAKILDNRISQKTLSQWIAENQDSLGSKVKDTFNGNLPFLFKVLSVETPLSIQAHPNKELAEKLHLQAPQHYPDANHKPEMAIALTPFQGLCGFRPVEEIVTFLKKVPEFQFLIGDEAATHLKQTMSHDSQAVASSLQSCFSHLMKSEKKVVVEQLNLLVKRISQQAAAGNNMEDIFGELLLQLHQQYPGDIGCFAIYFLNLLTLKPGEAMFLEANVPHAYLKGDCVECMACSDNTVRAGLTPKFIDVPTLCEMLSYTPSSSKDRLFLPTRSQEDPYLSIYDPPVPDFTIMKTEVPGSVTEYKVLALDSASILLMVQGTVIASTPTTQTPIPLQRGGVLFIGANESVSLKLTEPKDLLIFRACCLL

[3] = target: T1, Mannose-6-phosphate isomerase; test: PMI enzyme inhibitors, confirmation, biochemical, fluorescence intensity (AID 1535)
[4] = target: Alkaline phosphatase, placental type (Homo sapiens, UniProt P05187); test: PLAP enzyme inhibitors, confirmation, biochemical, luminescence (AID 1512); type: functional
[5] = target: T2, Short transient receptor potential channel 4 (Mus musculus, UniProt Q9QUQ5); test: mouse TRPC4 channel inhibitors, dose response, cell-based, HEK293 TRPC4/mu-opioid, Fluo-4 calcium (AID 434942); type: functional;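 also: potency of inhibitors blocking the TRPC4 calcium response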
T2 sequence (Q9QUQ5 whole entry): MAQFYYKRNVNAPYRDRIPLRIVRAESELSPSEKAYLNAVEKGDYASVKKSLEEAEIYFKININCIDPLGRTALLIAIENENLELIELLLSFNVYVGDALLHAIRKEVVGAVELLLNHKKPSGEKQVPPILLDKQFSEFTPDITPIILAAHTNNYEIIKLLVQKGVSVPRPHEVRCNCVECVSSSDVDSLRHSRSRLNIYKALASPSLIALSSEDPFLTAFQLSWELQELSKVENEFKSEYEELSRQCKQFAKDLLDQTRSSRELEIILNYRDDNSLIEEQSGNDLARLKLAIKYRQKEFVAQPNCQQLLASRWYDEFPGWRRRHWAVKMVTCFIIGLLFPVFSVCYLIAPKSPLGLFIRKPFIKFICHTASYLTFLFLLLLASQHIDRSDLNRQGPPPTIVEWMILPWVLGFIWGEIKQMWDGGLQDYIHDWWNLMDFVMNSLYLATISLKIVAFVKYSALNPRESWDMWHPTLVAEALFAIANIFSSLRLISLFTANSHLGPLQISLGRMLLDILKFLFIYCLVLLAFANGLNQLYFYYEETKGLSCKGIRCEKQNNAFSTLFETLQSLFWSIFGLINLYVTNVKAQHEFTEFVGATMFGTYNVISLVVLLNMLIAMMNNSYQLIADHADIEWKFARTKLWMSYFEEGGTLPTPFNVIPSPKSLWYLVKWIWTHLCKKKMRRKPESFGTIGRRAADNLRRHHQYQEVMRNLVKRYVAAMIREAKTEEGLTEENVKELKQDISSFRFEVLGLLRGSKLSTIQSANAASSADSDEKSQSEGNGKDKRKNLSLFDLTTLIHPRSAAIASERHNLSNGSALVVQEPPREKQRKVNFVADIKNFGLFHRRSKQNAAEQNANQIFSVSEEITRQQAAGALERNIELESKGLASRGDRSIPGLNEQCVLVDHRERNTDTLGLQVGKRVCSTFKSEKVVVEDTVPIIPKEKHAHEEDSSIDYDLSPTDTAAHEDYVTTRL

[6] = Cytotoxicity screening for potential Inhibitors of Bacterial Capsule Biogenesis. [Related pubchem assays (depositor defined):AID488970]; type: functional
[7] = Luminescence Cell-Based Dose Response HTS to Identify Activators of Luciferase Translation or Activity in H4-C Neuroglioblastoma Cells. [Related pubchem assays: 1829 (Project Summary), 1814 (Primary HTS)]; type: functional
[8] = Luminescence Cell-Based Dose Retest to Confirm Activators of 5'UTR Stem-Loop Driven Alpha-Synuclein mRNA Translation in H4 Neuroglioblastoma Cells. [Related pubchem assays (depositor defined):AID1813, AID1829]; type: functional
[9] = Luminescence Cell-Based Dose Response HTS to Identify Activators of 5'UTR Stem-Loop Driven Prion Protein mRNA Translation in H4-C Neuroglioblastoma Cells. [Related pubchem assays: 1829 (Project Summary), 1814 (Primary HTS)]; type: functional
[10] = Luminescence Cell-Based Dose Confirmation HTS to Identify Activators of 5'UTR Stem-Loop Driven Alpha-Synuclein mRNA Translation in H4 Neuroglioblastoma Cells. [Related pubchem assays: 1829 (Project Summary), 1814 (Primary HTS)]; type: functional
[11] = Luminescence Cell-Based Dose Response HTS to Identify Activators of Luciferase Translation or Activity in H4 […] Cells. [Related pubchem assays: 1829 (Project Summary), 1814 (Primary HTS)]; type: functional
[12] = Luminescence Cell-Based Dose Response to Identify Activators of 5'UTR Stem-Loop Driven Prion Protein mRNA Translation in H4-C Neuroglioblastoma Cells. [Related pubchem assays: 1829 (Project Summary), 1814 (Primary HTS)]; type: functional
H4 = test: Luminescence Cell-Based Dose Response HTS to Identify Activators of 5'UTR Stem-Loop Driven Prion Protein mRNA Translation in H4 Neuroglioblastoma Cells. [Related pubchem assays: 1829 (Project Summary), 1814 (Primary HTS)]; type: functional; conditions: Homo sapiens
[13] = Luminescence Cell-Based Dose Response to Identify Activators of Luciferase Translation or Activity in H4-C Neuroglioblastoma Cells. [Related pubchem assays: 1829 (Project Summary), 1814 (Primary HTS)]; type: functional
[14] = Luminescence Cell-Based Dose Confirmation to Identify Activators of 5'UTR Stem-Loop Driven Alpha-Synuclein mRNA Translation in H4 Neuroglioblastoma Cells. [Related pubchem assays: 1829 (Project Summary), 1814 (Primary HTS)]; type: functional
[15] = target: NACHT, LRR and PYD domains-containing protein 3 (Homo sapiens, UniProt Q96P20); test: NALP3 inhibitors in yeast, dose response, luminescent (AID 488799); type: functional
Chain of NACHT, LRR and PYD domains-containing protein 3 (Q96P20 whole entry, the tested form may be a part): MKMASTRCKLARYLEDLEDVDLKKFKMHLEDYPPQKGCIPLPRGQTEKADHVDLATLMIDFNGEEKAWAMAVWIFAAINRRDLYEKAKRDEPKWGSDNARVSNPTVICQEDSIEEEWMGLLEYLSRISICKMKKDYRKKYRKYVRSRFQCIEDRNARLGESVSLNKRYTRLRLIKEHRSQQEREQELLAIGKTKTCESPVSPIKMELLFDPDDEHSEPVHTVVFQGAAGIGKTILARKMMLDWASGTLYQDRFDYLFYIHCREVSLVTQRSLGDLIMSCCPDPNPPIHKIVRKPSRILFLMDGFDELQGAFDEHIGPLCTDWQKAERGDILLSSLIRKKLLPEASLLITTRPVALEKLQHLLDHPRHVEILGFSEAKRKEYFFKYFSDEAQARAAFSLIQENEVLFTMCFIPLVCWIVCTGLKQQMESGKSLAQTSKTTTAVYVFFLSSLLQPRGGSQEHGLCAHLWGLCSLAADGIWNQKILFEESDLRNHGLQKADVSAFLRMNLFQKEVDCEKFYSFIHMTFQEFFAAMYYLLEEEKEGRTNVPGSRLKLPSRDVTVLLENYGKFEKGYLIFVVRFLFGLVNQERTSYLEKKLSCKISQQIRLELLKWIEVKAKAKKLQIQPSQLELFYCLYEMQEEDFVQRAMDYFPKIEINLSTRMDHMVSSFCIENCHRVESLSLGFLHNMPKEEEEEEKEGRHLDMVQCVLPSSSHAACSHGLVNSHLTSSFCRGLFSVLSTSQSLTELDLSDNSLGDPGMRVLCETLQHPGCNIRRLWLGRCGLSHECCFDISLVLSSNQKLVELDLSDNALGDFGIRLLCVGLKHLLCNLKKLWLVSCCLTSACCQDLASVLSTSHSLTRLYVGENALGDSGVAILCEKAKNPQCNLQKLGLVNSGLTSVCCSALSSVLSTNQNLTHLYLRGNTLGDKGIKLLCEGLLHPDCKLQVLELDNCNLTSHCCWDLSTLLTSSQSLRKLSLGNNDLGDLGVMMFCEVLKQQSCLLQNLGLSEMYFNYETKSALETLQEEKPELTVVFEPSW

Mu-type opioid receptor = Mu-type opioid receptor (Homo sapiens, UniProt P35372); test: SAR Analysis of Antagonists of the MOR Receptor using an Image-Based Assay - Set 3. [Related pubchem assays (depositor defined):AID1777, AID1785, AID1786, AID1966, AID2133, AID2136, AID2284, AID2285, AID2420]; type: functional
[16] = target: T3, Kappa-type opioid receptor (Homo sapiens, UniProt P41145); test: SAR analysis of small molecule antagonists of the kappa opioid receptor via a luminescent beta-arrestin assay - Set 4. [Related pubchem assays (depositor defined):AID1777, AID1778, AID1785, AID1786, AID1966, AID2133, AID2136, AID2285]; type: functional
T3 sequence (P41145 whole entry): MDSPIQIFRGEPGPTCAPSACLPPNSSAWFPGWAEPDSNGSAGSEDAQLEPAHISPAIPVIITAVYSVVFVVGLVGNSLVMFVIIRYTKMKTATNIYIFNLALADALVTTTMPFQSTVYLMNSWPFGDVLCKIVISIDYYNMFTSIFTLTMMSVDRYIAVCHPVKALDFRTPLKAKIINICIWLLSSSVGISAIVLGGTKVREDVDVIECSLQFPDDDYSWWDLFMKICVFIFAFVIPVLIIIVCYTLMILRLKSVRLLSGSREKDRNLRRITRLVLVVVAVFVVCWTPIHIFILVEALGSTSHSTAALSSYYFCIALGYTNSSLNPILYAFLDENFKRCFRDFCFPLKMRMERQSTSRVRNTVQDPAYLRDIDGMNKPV

[17] = target: Delta-type opioid receptor (Homo sapiens, UniProt P41143); test: SAR Analysis of Antagonists of the DOR Receptor using an Image-Based Assay - Set 3. [Related pubchem assays (depositor defined):AID1777, AID1785]; type: functional;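 also: U2OS cells expressing DOR1 and beta-arrestin GFP stimulated with 100 nM SNC80; imaging of GFP-tagged beta-arrestin moving into spots after receptor activation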
[18] = target: T3, Kappa-type opioid receptor; test: SAR analysis of Antagonists of the Kappa Opioid Receptor (KOR) using an Image-Based Assay - Set 4. [Related pubchem assays (depositor defined):AID1777, AID1785]; type: functional
X-box-binding protein 1 = X-box-binding protein 1 (Homo sapiens, UniProt P17861); type: functional, Cricetulus griseus;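 also: confirmatory dose-response counter-screen serving a CHOP assay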
[19] = target: T4, High affinity choline transporter 1 (Homo sapiens, UniProt Q9GZV3); test: CHT inhibitors, dose response, cell-based, 5-point CRC, membrane potential dye (AID 504840); type: functional
T4 sequence (Q9GZV3 whole entry): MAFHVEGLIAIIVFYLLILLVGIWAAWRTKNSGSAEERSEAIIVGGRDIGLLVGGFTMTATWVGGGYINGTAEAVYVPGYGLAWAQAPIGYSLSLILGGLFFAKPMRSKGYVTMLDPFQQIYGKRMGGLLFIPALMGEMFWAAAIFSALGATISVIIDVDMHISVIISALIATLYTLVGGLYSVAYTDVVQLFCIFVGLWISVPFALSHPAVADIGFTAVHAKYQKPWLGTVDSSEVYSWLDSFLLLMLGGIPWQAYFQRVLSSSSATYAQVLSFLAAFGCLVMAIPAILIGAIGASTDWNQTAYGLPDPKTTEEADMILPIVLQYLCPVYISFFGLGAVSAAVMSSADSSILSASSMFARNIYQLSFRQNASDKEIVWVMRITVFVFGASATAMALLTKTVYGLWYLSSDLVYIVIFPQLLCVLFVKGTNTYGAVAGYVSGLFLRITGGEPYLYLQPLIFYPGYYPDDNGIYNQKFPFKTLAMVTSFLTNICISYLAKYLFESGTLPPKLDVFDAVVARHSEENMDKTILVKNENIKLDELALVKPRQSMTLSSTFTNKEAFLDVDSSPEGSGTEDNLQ

Melanocortin receptor 4 = Melanocortin receptor 4 (Homo sapiens, UniProt P32245); test: MC4R antagonist potency on cAMP, dose response, cell-based, TR-FRET, biased antagonists (AID 602298); type: functional;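 also: antagonist potency against agonist-stimulated cAMP production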
Chain of Melanocortin receptor 4 (P32245 whole entry): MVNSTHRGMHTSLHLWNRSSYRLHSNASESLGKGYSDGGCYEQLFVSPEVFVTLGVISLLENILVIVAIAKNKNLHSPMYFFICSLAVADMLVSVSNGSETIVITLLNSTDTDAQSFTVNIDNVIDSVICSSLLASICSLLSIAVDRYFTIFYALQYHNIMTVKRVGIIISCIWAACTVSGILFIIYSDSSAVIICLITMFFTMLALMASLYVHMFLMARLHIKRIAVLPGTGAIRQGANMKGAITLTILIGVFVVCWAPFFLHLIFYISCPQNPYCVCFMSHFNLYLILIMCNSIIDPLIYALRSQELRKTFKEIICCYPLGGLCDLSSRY

[20] = nonselective inhibitors of cellular cAMP signaling, dose response, counter-screen for MC4R biased antagonist project, cell-based, TR-FRET cAMP detection (AID 602305); type: functional;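 also: U2OS cells stimulated with forskolin near its EC80 as the cAMP inducer; potency is for inhibition of forskolin-stimulated cAMP signaling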
[21] = target: T5, Voltage-gated N-type calcium channel alpha-1B subunit/Amyloid beta A4 precursor protein-binding family A member 1 (Homo sapiens, UniProt Q00975+Q02410); type: protein assay
T5 sequence (Q00975 whole entry): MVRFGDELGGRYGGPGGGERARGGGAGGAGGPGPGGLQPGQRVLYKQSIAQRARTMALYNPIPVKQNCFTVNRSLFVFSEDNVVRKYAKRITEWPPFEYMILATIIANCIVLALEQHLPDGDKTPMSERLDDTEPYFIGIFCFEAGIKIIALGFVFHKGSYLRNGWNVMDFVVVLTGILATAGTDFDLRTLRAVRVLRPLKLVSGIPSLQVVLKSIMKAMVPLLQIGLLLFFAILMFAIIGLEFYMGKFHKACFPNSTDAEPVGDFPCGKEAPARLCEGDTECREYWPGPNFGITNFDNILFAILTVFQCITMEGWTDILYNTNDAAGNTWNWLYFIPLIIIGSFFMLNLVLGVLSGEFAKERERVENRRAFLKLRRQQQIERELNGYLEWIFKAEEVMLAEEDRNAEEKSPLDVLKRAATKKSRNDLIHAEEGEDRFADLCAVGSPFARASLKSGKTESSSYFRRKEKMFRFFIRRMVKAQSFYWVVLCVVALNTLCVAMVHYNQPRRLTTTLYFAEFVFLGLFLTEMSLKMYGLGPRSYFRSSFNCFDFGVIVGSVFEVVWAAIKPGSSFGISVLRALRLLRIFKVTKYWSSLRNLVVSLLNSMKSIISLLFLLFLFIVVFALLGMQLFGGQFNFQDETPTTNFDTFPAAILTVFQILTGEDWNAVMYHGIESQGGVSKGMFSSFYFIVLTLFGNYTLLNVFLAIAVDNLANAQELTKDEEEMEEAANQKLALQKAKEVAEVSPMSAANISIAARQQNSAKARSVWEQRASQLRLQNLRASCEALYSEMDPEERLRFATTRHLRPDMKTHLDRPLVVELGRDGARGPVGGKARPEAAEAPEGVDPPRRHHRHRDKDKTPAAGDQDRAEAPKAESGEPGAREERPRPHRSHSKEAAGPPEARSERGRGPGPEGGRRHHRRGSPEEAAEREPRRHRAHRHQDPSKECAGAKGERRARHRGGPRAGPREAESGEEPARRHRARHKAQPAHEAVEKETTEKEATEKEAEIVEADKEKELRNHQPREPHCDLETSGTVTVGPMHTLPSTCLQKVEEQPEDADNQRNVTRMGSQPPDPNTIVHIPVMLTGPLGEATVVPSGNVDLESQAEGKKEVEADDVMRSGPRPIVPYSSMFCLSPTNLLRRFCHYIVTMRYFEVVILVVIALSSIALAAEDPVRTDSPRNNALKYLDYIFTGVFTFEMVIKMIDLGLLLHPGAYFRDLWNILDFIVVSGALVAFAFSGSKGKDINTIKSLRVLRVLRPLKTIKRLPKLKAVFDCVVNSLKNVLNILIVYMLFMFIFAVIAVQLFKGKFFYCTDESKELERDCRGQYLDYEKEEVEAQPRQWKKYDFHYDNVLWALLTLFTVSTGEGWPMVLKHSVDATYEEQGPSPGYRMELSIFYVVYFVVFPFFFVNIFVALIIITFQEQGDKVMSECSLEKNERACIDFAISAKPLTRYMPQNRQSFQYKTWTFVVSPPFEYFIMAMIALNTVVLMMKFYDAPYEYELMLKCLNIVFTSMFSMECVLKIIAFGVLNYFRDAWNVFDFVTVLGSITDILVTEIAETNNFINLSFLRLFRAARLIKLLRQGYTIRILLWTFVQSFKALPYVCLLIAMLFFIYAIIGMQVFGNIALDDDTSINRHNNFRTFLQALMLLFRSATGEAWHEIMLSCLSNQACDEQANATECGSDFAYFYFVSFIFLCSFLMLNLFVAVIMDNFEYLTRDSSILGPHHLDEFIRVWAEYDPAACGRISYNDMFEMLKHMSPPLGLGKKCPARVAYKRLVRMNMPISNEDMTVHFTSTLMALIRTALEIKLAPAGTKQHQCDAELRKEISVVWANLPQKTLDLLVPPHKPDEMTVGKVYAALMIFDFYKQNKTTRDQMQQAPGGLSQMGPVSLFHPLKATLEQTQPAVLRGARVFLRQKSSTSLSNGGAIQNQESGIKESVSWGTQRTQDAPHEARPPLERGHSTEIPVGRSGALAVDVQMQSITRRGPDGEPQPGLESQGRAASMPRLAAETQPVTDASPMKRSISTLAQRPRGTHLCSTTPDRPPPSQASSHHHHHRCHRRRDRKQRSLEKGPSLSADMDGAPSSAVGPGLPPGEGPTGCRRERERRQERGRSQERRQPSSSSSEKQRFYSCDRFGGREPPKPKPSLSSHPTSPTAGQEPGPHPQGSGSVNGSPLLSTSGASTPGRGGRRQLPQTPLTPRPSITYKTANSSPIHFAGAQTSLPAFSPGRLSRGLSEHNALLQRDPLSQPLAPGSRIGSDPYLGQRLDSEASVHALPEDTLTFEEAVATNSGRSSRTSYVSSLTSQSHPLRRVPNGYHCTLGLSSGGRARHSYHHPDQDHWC
T5 sequence (Q02410 whole entry): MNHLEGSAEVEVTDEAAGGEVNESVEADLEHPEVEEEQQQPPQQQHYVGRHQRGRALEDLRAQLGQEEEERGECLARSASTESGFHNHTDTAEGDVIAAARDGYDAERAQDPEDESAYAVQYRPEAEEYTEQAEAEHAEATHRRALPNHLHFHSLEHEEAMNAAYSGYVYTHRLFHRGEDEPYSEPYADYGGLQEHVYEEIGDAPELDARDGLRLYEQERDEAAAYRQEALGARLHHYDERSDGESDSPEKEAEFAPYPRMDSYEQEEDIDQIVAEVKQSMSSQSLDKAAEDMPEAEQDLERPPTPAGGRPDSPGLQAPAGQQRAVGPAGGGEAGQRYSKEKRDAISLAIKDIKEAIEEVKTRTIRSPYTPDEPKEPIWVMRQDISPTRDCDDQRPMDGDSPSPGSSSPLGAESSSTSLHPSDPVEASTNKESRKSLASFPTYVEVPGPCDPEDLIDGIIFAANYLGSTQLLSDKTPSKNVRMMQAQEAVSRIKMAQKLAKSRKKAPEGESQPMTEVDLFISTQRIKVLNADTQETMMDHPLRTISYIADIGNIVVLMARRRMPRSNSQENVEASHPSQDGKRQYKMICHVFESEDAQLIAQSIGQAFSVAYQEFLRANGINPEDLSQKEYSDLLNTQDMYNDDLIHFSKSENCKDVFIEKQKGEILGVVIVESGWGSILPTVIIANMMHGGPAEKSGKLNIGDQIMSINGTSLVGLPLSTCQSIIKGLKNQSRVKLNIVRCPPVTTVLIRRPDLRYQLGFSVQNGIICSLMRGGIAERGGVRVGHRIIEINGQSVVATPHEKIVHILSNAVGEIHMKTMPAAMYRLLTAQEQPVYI

Large T antigen = Large T antigen (Simian virus 40, UniProt P03070); type: functional, Betapolyomavirus macacae;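 also: Confirmatory-stage PubChem screen for compounds that inhibit SV40 T antigen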
[22] = target: T5, Voltage-gated N-type calcium channel alpha-1B subunit/Amyloid beta A4 precursor protein-binding family A member 1; type: protein assay; remark: listed apart in the source
[23] = target: T5, Voltage-gated N-type calcium channel alpha-1B subunit/Amyloid beta A4 precursor protein-binding family A member 1; test: disruptors of Mint-PDZ/N-type channel peptide interaction – biochemical, HTRF, SAR follow-up (AID 2489); type: functional
Cytochrome P450 2C19 = Cytochrome P450 2C19 (Homo sapiens, UniProt P33261); test: Cytochrome panel assay with activity outcomes. Panel member name: p450-cyp2c19 Compounds with AC50 equal or less than 10 uM are considered active; type: functional; conditions: read-out: AC50
Cytochrome P450 2C9 = Cytochrome P450 2C9 (Homo sapiens, UniProt P11712)
Trypsin = Trypsin (Sus scrofa, UniProt P00761); test: porcine trypsin inhibitors, dose response, selectivity assay for Rce1 protease inhibitor project, biochemical, quenched peptide fluorescence, cherry-pick (AID 488789)
CAAX prenyl protease 2 = CAAX prenyl protease 2 (Homo sapiens, UniProt Q9Y256); test: human Rce1 protease inhibitors, dose response, biochemical, yeast membranes, quenched-peptide fluorescence, cherry-pick (AID 588849)

For `Cc1oc2cc(O)ccc2c(=O)c1-c1nncn1-c1ccccc1`, the AC50 (Salmon testes DNA) was 49.4 µM (active), the AC50 (ORF 73) was 26.6 µM (active) and the AC50 (Keap1/Nrf2) was 43.4 µM (active).

For `COc1cc(/C=C/C(=O)NC(=O)c2ccccc2O)ccc1OC(C)=O`, the IC50 [1] was > 150 µM (active).

In the case of `CSc1nc(-c2ccccc2)nc(-c2ccccc2)n1`, the IC50 (MDA-MB-435) was > 10 µM (inactive) and the IC50 (cells) was > 10 µM (inactive).

In the case of `CCN1C(=O)C2(NNc3ccccc3O2)c2ccccc21` (stereo not drawn), the IC50 [2] was > 100 µM (inactive), the IC50 [3] was > 100 µM (inactive) and the IC50 [4] was > 100 µM (inactive).

For `CCOc1ccc(-c2cc(NC(=O)c3c(F)cccc3F)c(C(=O)O)s2)cc1`, the EC50 [5] was 2.99 µM (active) and the CC50 [6] was 66.7 µM (active).

In the case of `COc1cccc(Nc2nnc(SCc3nc4ccccc4s3)s2)c1`, the EC50 [7] was 2.15 µM (active), the EC50 [8] was 1.31 µM (active) and the EC50 [9] was 4.9 µM (active). The EC50 [10] was 27.4 µM (active) and the EC50 [11] was 46.8 µM (active).

For `Nc1ccc(Oc2cc(N)cc(Oc3ccccc3)c2)cc1`, the EC50 [12] was 2.5 µM (active), the EC50 [11] was < 0.1 µM (active) and the EC50 (H4) was 20.4 µM (active). The EC50 [13] was > 12 µM (not active), the EC50 [14] was 1.22 µM (active) and the IC50 [15] was 4.74 µM (active).

With `Cc1ccc(S(=O)(=O)NCc2ccc(C(=O)NC3CCN(Cc4ccccc4)CC3)cc2)cc1` the IC50 (Mu-type opioid receptor) was > 32 µM (inactive), the IC50 [16] was > 20 µM (inactive) and the IC50 [17] was > 32 µM (inactive). The IC50 [18] was > 32 µM (inactive).

For `COc1cccc(C(=O)C(C#N)=C(SC)SC)c1`, the “Absolute IC50 (XBP1)” value (X-box-binding protein 1) was 10 µM, the IC50 [19] was 11.2 µM (active) and the IC50 (Melanocortin receptor 4) was > 64.6 µM (inactive). The IC50 [20] was > 64.6 µM (inactive).

For `Nc1ccc(-c2nc3ccc(N)c(Cl)c3[nH]2)cc1`, the IC50 [21] was 1.94 µM (active), the IC50 (Large T antigen) was 7.64 µM (active) and the IC50 [22] was 9.64 µM (active). For the same molecule, the IC50 [23] was 11.6 µM (active), the AC50 (Cytochrome P450 2C19) was 6.31 µM (inconclusive) and the AC50 (Cytochrome P450 2C9) was 112 nM (inconclusive).

With `Cc1cc(NC(=O)COC(=O)c2nccnc2N)n(-c2ccccc2)n1` the AC50 (Trypsin) was 25.9 µM (active) and the AC50 (CAAX prenyl protease 2) was 1.84 µM (active).

— ChEMBL document CHEMBL1201862, “PubChem BioAssay data set” (2004)
